For ten compounds, IC50 results are on record in US20260250290A1 (BRISTOL-MYERS SQUIBB COMPANY, priority 2023, published 2026).

The target in the assay is T1, full length SGK1 (Homo sapiens, UniProt O00141).
T1 construct: 125 μM full length SGK1 (Life Technologies Part #PR7358A); purchased Life Technologies PR7358A
T1 sequence (O00141 1-431): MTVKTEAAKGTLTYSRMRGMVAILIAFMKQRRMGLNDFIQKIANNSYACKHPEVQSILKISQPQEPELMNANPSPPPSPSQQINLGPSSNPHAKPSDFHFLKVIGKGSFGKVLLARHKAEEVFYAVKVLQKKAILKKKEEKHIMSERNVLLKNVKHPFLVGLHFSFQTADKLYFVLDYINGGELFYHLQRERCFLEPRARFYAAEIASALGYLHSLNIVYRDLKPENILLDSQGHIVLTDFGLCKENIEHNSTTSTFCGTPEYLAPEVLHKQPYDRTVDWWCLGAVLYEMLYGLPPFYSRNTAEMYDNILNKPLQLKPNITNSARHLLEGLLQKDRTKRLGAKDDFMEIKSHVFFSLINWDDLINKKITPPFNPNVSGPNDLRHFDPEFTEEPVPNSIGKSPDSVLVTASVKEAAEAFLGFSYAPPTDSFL
As to the kind of experiment: SGK1 inhibition Assay A (Caliper LabChip electrophoretic separation of fluorescent peptide substrate and phosphorylated product). It counts as biochemical. The settings on record: Assay A; 20 μM ATP, 40 min incubation; read-out: SGK1 IC50.

Turning to `CN1CCC(Oc2cc(Cl)sc2C(=O)N[C@@H]2CCCN(c3cc(-c4cncnc4)n4ncnc(N)c34)C2)CC1` [Example 585, (R)-N-(1-(4-amino-7-(pyrimidin-5-yl)pyrrolo[2,1-f][1,2,4]triazin-5-yl)piperidin-3-yl)-5-chloro-3-((1-methylpiperidin-4-yl)oxy)thiophene-2-carboxamide], the IC50 (in general, the point on the concentration scale where inhibition reaches its midpoint) worked out at 9 nM. Next, `Nc1ncnn2c(-c3ccnc(C(F)F)c3)cc(N3CCC[C@@H](NC(=O)c4sc(Cl)cc4OC4CCNC4)C3)c12` (stereo partly drawn) [Example 586, N-((R)-1-(4-amino-7-(2-(difluoromethyl)pyridin-4-yl)pyrrolo[2,1-f][1,2,4]triazin-5-yl)piperidin-3-yl)-5-chloro-3-(pyrrolidin-3-yloxy)thiophene-2-carboxamide]: 4 nM; `Nc1ncnn2c(-c3ccnc(C(F)F)c3)cc(N3CCC[C@@H](NC(=O)c4sc(Cl)cc4OC4CCNCC4)C3)c12` [Example 588, (R)-N-(1-(4-amino-7-(2(difluoromethyl)pyridin-4-yl)pyrrolo[2,1-f][1,2,4]triazin-5-yl)piperidin-3-yl)-5-chloro-3-(piperidin-4-yloxy)thiophene-2-carboxamide]: 2 nM; `CN1CCC(Oc2cc(Cl)sc2C(=O)N[C@@H]2CCCN(c3cc(-c4ccc(C(N)=O)c(F)c4)n4ncnc(N)c34)C2)CC1` [Example 589, (R)-N-(1-(4-amino-7-(4-carbamoyl-3-fluorophenyl)pyrrolo[2,1-f][1,2,4]triazin-5-yl)piperidin-3-yl)-5-chloro-3-((1-methylpiperidin-4-yl)oxy)thiophene-2-carboxamide]: 2 nM.

On to `NC(=O)c1ccc(-c2cc(N3CCC[C@@H](NC(=O)c4sc(Cl)cc4OC4CC5(CNC5)C4)C3)c3c(N)ncnn23)cc1F` [Example 590, (R)-3-((2-azaspiro[3.3]heptan-6-yl)oxy)-N-(1-(4-amino-7-(4-carbamoyl-3-fluorophenyl)pyrrolo[2,1-f][1,2,4]triazin-5-yl)piperidin-3-yl)-5-chlorothiophene-2-carboxamide], for which the IC50 came out at 2 nM. The result for `N#Cc1ccc(-c2cc(N3CCC[C@@H](NC(=O)c4sc(Cl)cc4OC4CC5(CNC5)C4)C3)c3c(N)ncnn23)cn1` [Example 591] reads 1 nM; that for `NC(=O)c1ccc(-c2cc(N3CCC[C@@H](NC(=O)c4sc(Cl)cc4OC4CC5(CNC5)C4)C3)c3c(N)ncnn23)cn1` [Example 592, (R)-5-(5-(3-(3-((2-azaspiro[3.3]heptan-6-yl)oxy)-5-chlorothiophene-2-carboxamido)piperidin-1-yl)-4-aminopyrrolo[2,1-f][1,2,4]triazin-7-yl)picolinamide], 0.5 nM; that for `CC(=O)N1CC=C(c2cc(N3CCC[C@@H](NC(=O)c4sc(Cl)cc4OC4CCCN(C)C4)C3)c3c(N)ncnn23)C1` (stereo partly shown) [Example 597], 10 nM. The result for `CC(=O)N1CC=C(c2cc(N3CCC[C@@H](NC(=O)c4sc(Cl)cc4OC4CC(N(C)C)C4)C3)c3c(N)ncnn23)C1` (stereo partly drawn) [Example 598, (R)-N-(1-(7-(1-acetyl-2,5-dihydro-1H-pyrrol-3-yl)-4-aminopyrrolo[2,1-f][1,2,4]triazin-5-y1)piperidin-3-y1)-5-chloro-3-(3-(dimethylamino)cyclobutoxy)thiophenc-2-carboxamide] reads 6 nM. As to `CC(=O)N1CC=C(c2cc(N3CCC[C@@H](NC(=O)c4sc(Cl)cc4OC4CC(N(C)C)C4)C3)c3c(N)ncnn23)C1` (stereo partly drawn) [Example 599, (R)-N-(1-(7-(1-acetyl-2,5-dihydro-1H-pyrrol-3-yl)-4-aminopyrrolo[2,1-f][1,2,4]triazin-5-yl)piperidin-3-y1)-5-chloro-3-(3-(dimethylamino)cyclobutoxy)thiophene-2-carboxamide], the 50% inhibitory concentration (IC50) is 8 nM.
